Reference: patent US8580794B2 (AbbVie Inc., priority 2009, dated 2013)

biological target: GST-Bc1-2 (Homo sapiens, UniProt P10415); test: Time Resolved-Fluorescence Resonance Energy Transfer (TR-FRET) Bcl-2 binding assay with F-Bak peptide probe; details: GST-Bcl-2 1 nM, F-Bak probe 100 nM, Tb-anti-GST 1 nM; '<' = below limit of detection; read-out: TR-FRET Bcl-2 Binding Ki
Sequence (P10415 whole entry): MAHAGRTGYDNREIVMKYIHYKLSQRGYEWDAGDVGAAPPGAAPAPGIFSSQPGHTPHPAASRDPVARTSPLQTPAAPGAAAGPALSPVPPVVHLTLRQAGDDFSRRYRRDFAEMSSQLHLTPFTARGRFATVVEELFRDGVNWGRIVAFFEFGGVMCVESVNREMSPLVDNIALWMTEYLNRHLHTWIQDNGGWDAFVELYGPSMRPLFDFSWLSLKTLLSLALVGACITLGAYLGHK

With CN(C)CC(=O)N1CC[C@@H](Nc2ccc(S(=O)(=O)NC(=O)c3ccc(N4CCN(CC5=C(c6ccc(Cl)cc6)CC(C)(C)CC5)CC4)cc3Oc3cnc4[nH]ccc4c3)cc2[N+](=O)[O-])C1 [Example 255, 4-(4-{[2-(4-chlorophenyl)-4,4-dimethylcyclohex-1-en-1-yl]methyl}piperazin-1-yl)-N-[(4-{[(3R)-1-(N,N-dimethylglycyl)pyrrolidin-3-yl]amino}-3-nitrophenyl)sulfonyl]-2-(1H-pyrrolo[2,3-b]pyridin-5-yloxy)benzamide] as the compound, how does the Ki read?
Its Ki is under 0.01 nM.

CC1(C)CCC(CN2CCN(c3ccc(C(=O)NS(=O)(=O)c4ccc(NC5CN(C6COC6)C5)c([N+](=O)[O-])c4)c(Oc4cnc5[nH]ccc5c4)c3)CC2)=C(c2ccc(Cl)cc2)C1 [Example 256, 4-(4-{[2-(4-chlorophenyl)-4,4-dimethylcyclohex-1-en-1-yl]methyl}piperazin-1-yl)-N-[(3-nitro-4-{[1-(oxetan-3-yl)azetidin-3-yl]amino}phenyl)sulfonyl]-2-(1H-pyrrolo[2,3-b]pyridin-5-yloxy)benzamide] was tested. Which Ki did it give?
Its Ki is under 0.01 nM.

CC1(C)CCC(CN2CCN(c3ccc(C(=O)NS(=O)(=O)c4cnc(OCC5(F)CCN(CC#N)CC5)c(Cl)c4)c(Oc4cnc5[nH]ccc5c4)c3)CC2)=C(c2ccc(Cl)cc2)C1 [Example 257, N-[(5-chloro-6-{[1-(cyanomethyl)-4-fluoropiperidin-4-yl]methoxy}pyridin-3-yl)sulfonyl]-4-(4-{[2-(4-chlorophenyl)-4,4-dimethylcyclohex-1-en-1-yl]methyl}piperazin-1-yl)-2-(1H-pyrrolo[2,3-b]pyridin-5-yloxy)benzamide] was tested. Which Ki did it give?
The Ki was 0.052 nM.

CN(C)CC(=O)N1CCO[C@H](CNc2ccc(S(=O)(=O)NC(=O)c3ccc(N4CCN(CC5=C(c6ccc(Cl)cc6)CC(C)(C)CC5)CC4)cc3Oc3cnc4[nH]ccc4c3)cc2[N+](=O)[O-])C1 [Example 258, 4-(4-{[2-(4-chlorophenyl)-4,4-dimethylcyclohex-1-en-1-yl]methyl}piperazin-1-yl)-N-{[4-({[(2R)-4-(N,N-dimethylglycyl)morpholin-2-yl]methyl}amino)-3-nitrophenyl]sulfonyl}-2-(1H-pyrrolo[2,3-b]pyridin-5-yloxy)benzamide] was tested. Which Ki did it give?
The Ki was under 0.01 nM.

Which Ki does the source give for CN(C)CC(=O)N1CCO[C@@H](CNc2ccc(S(=O)(=O)NC(=O)c3ccc(N4CCN(CC5=C(c6ccc(Cl)cc6)CC(C)(C)CC5)CC4)cc3Oc3cnc4[nH]ccc4c3)cc2[N+](=O)[O-])C1 [Example 259, 4-(4-{[2-(4-chlorophenyl)-4,4-dimethylcyclohex-1-en-1-yl]methyl}piperazin-1-yl)-N-{[4-({[(2S)-4-(N,N-dimethylglycyl)morpholin-2-yl]methyl}amino)-3-nitrophenyl]sulfonyl}-2-(1H-pyrrolo[2,3-b]pyridin-5-yloxy)benzamide] here?
Its Ki is under 0.01 nM.

How did the Ki turn out when CN(C)CC(=O)N1CCC(COc2ncc(S(=O)(=O)NC(=O)c3ccc(N4CCN(CC5=C(c6ccc(Cl)cc6)CC(C)(C)CC5)CC4)cc3Oc3cnc4[nH]ccc4c3)cc2Cl)CC1 [Example 260, N-[(5-chloro-6-{[1-(N,N-dimethylglycyl)piperidin-4-yl]methoxy}pyridin-3-yl)sulfonyl]-4-(4-{[2-(4-chlorophenyl)-4,4-dimethylcyclohex-1-en-1-yl]methyl}piperazin-1-yl)-2-(1H-pyrrolo[2,3-b]pyridin-5-yloxy)benzamide] was run?
Its Ki is 0.016 nM.

Which Ki does the source give for CC1(C)CCC(CN2CCN(c3ccc(C(=O)NS(=O)(=O)c4cnc(O[C@@H]5CCN(CC(F)F)C5)c(Cl)c4)c(Oc4cnc5[nH]ccc5c4)c3)CC2)=C(c2ccc(Cl)cc2)C1 [Example 261, N-[(5-chloro-6-{[(3R)-1-(2,2-difluoroethyl)pyrrolidin-3-yl]oxy}pyridin-3-yl)sulfonyl]-4-(4-{[2-(4-chlorophenyl)-4,4-dimethylcyclohex-1-en-1-yl]methyl}piperazin-1-yl)-2-(1H-pyrrolo[2,3-b]pyridin-5-yloxy)benzamide] here?
Its Ki is 0.134 nM.

For CC1(C)CCC(CN2CCN(c3ccc(C(=O)NS(=O)(=O)c4ccc(N[C@@H]5CCN(CC#N)C5)c([N+](=O)[O-])c4)c(Oc4cnc5[nH]ccc5c4)c3)CC2)=C(c2ccc(Cl)cc2)C1 [Example 262, 4-(4-{[2-(4-chlorophenyl)-4,4-dimethylcyclohex-1-en-1-yl]methyl}piperazin-1-yl)-N-[(4-{[(3R)-1-(cyanomethyl)pyrrolidin-3-yl]amino}-3-nitrophenyl)sulfonyl]-2-(1H-pyrrolo[2,3-b]pyridin-5-yloxy)benzamide], which Ki is on record?
Its Ki is under 0.01 nM.

Which Ki does the source give for COC1(Cc2ccccc2-c2ccc(Cl)cc2)CCN(c2ccc(C(=O)NS(=O)(=O)c3cnc(OCC4(F)CCOCC4)c(Cl)c3)c(Oc3cnc4[nH]ccc4c3)c2)CC1 [Example 263, 4-{4-[(4′-chlorobiphenyl-2-yl)methyl]-4-methoxypiperidin-1-yl}-N-({5-chloro-6-[(4-fluorotetrahydro-2H-pyran-4-yl)methoxy]pyridin-3-yl}sulfonyl)-2-(1H-pyrrolo[2,3-b]pyridin-5-yloxy)benzamide] here?
Its Ki is 0.156 nM.

For COC1(Cc2ccccc2-c2ccc(Cl)cc2)CCN(c2ccc(C(=O)NS(=O)(=O)c3ccc(NCC4CCOCC4)c([N+](=O)[O-])c3)c(Oc3cnc4[nH]ccc4c3)c2)CC1 [Example 264, 4-{4-[(4′-chlorobiphenyl-2-yl)methyl]-4-methoxypiperidin-1-yl}-N-({3-nitro-4-[(tetrahydro-2H-pyran-4-ylmethyl)amino]phenyl}sulfonyl)-2-(1H-pyrrolo[2,3-b]pyridin-5-yloxy)benzamide], which Ki is on record?
Its Ki is 0.036 nM.

O=C(NS(=O)(=O)c1ccc(NCC2CCOCC2)c([N+](=O)[O-])c1)c1ccc(N2CCN(CC3=C(c4ccc(Cl)cc4)CCC4(CCN(C(CF)CF)CC4)C3)CC2)cc1Oc1cnc2[nH]ccc2c1 [Example 265, 4-(4-{[9-(4-chlorophenyl)-3-(1,3-difluoropropan-2-yl)-3-azaspiro[5.5]undec-8-en-8-yl]methyl}piperazin-1-yl)-N-({3-nitro-4-[(tetrahydro-2H-pyran-4-ylmethyl)amino]phenyl}sulfonyl)-2-(1H-pyrrolo[2,3-b]pyridin-5-yloxy)benzamide] was tested. Which Ki did it give?
The Ki was under 0.01 nM.

Which Ki does the source give for CC(C)N1CCC2(CCC(c3ccc(Cl)cc3)=C(CN3CCN(c4ccc(C(=O)NS(=O)(=O)c5ccc(NCC6CCOCC6)c([N+](=O)[O-])c5)c(Oc5cnc6[nH]ccc6c5)c4)CC3)C2)CC1 [Example 266, 4-(4-{[9-(4-chlorophenyl)-3-isopropyl-3-azaspiro[5.5]undec-8-en-8-yl]methyl}piperazin-1-yl)-N-({3-nitro-4-[(tetrahydro-2H-pyran-4-ylmethyl)amino]phenyl}sulfonyl)-2-(1H-pyrrolo[2,3-b]pyridin-5-yloxy)benzamide] here?
Its Ki is under 0.01 nM.

With CC(C)N1CCC2(CCC(c3ccc(Cl)cc3)=C(CN3CCN(c4ccc(C(=O)NS(=O)(=O)c5cnc(OCC6CCOCC6)c(Cl)c5)c(Oc5cnc6[nH]ccc6c5)c4)CC3)C2)CC1 [Example 268, 4-(4-{[9-(4-chlorophenyl)-3-isopropyl-3-azaspiro[5.5]undec-8-en-8-yl]methyl}piperazin-1-yl)-N-{[5-chloro-6-(tetrahydro-2H-pyran-4-ylmethoxy)pyridin-3-yl]sulfonyl}-2-(1H-pyrrolo[2,3-b]pyridin-5-yloxy)benzamide] as the compound, how does the Ki read?
Its Ki is under 0.01 nM.

Which Ki does the source give for CN1CCC(F)(COc2ncc(S(=O)(=O)NC(=O)c3ccc(N4CCN(CC5=C(c6ccc(Cl)cc6)CC(C)(C)CC5)CC4)cc3Oc3cnc4[nH]ccc4c3)cc2Cl)CC1 [Example 269, N-({5-chloro-6-[(4-fluoro-1-methylpiperidin-4-yl)methoxy]pyridin-3-yl}sulfonyl)-4-(4-{[2-(4-chlorophenyl)-4,4-dimethylcyclohex-1-en-1-yl]methyl}piperazin-1-yl)-2-(1H-pyrrolo[2,3-b]pyridin-5-yloxy)benzamide] here?
Its Ki is 0.016 nM.

Which Ki does the source give for CN(C)CC(=O)N1CCC(F)(COc2ncc(S(=O)(=O)NC(=O)c3ccc(N4CCN(CC5=C(c6ccc(Cl)cc6)CC(C)(C)CC5)CC4)cc3Oc3cnc4[nH]ccc4c3)cc2Cl)CC1 [Example 270, N-[(5-chloro-6-{[1-(N,N-dimethylglycyl)-4-fluoropiperidin-4-yl]methoxy}pyridin-3-yl)sulfonyl]-4-(4-{[2-(4-chlorophenyl)-4,4-dimethylcyclohex-1-en-1-yl]methyl}piperazin-1-yl)-2-(1H-pyrrolo[2,3-b]pyridin-5-yloxy)benzamide] here?
The Ki was under 0.01 nM.

For O=C(NS(=O)(=O)c1ccc(NCC2CCOCC2)c([N+](=O)[O-])c1)c1ccc(N2CCC(F)(Cc3ccccc3-c3ccc(Cl)cc3)CC2)cc1Oc1cnc2[nH]ccc2c1 [Example 271, 4-{4-[(4′-chlorobiphenyl-2-yl)methyl]-4-fluoropiperidin-1-yl}-N-({3-nitro-4-[(tetrahydro-2H-pyran-4-ylmethyl)amino]phenyl}sulfonyl)-2-(1H-pyrrolo[2,3-b]pyridin-5-yloxy)benzamide], which Ki is on record?
The Ki was 0.039 nM.

How did the Ki turn out when O=C(NS(=O)(=O)c1cnc(OCC2(F)CCOCC2)c(Cl)c1)c1ccc(N2CCC(F)(Cc3ccccc3-c3ccc(Cl)cc3)CC2)cc1Oc1cnc2[nH]ccc2c1 [Example 272, 4-{4-[(4′-chlorobiphenyl-2-yl)methyl]-4-fluoropiperidin-1-yl}-N-({5-chloro-6-[(4-fluorotetrahydro-2H-pyran-4-yl)methoxy]pyridin-3-yl}sulfonyl)-2-(1H-pyrrolo[2,3-b]pyridin-5-yloxy)benzamide] was run?
The Ki was 0.031 nM.

For CC(C)N1CCC2(CCC(c3ccc(Cl)cc3)=C(CN3CCN(c4ccc(C(=O)NS(=O)(=O)c5ccc(NCC6CCOCC6)c(C(F)(F)F)c5)c(Oc5cnc6[nH]ccc6c5)c4)CC3)C2)CC1 [Example 273, 4-(4-{[9-(4-chlorophenyl)-3-isopropyl-3-azaspiro[5.5]undec-8-en-8-yl]methyl}piperazin-1-yl)-2-(1H-pyrrolo[2,3-b]pyridin-5-yloxy)-N-({4-[(tetrahydro-2H-pyran-4-ylmethyl)amino]-3-(trifluoromethyl)phenyl}sulfonyl)benzamide], which Ki is on record?
The Ki was 0.035 nM.

CC1(C)CCC(CN2CCN(c3ccc(C(=O)NS(=O)(=O)c4cnc(O[C@@H]5CCN(C(CF)CF)C5)c(Cl)c4)c(Oc4cnc5[nH]ccc5c4)c3)CC2)=C(c2ccc(Cl)cc2)C1 [Example 274, N-[(5-chloro-6-{[(3R)-1-(1,3-difluoropropan-2-yl)pyrrolidin-3-yl]oxy}pyridin-3-yl)sulfonyl]-4-(4-{[2-(4-chlorophenyl)-4,4-dimethylcyclohex-1-en-1-yl]methyl}piperazin-1-yl)-2-(1H-pyrrolo[2,3-b]pyridin-5-yloxy)benzamide] was tested. Which Ki did it give?
The Ki was 0.04 nM.
